For assay [1], the system named is metrazol induced convulsions. Put plainly: animal or person. The assay is classed as in vivo, mice. The following applies: for responders at 10 mg/kg: 10 min, 10 minutes prior to metrazol (85 mg/kg). The procedure: Experiments were also performed to determine the physiological relevance of neuroactive steroid and GABA receptor interactions by assessing the ability of the compounds of and used in the invention to prevent metrazol induced convulsions in mice. Mice were injected with various doses of the test compounds of the invention, 10 minutes prior to the injection of metrazol. The time to onset of myoclomis (presence of forelimb clonic activity) induced by metrazol was determined by observing each mouse for a period of 30 minutes. […] Table 6: Antimetrazol Activity of Neuroactive Steroids in Mice
The anticonvulsant tests are similar to that described above. […] The number of animals with tonic and/or clonic convulsions was recorded. In the maximal electroshock test, 50 mA of current at 60 Hz was delivered through corneal electrodes for 200 msec to induce tonic seizure. The ability of compounds to abolish the tonic component was defined as the endpoint. General CNS depression potential was determined by a rotorod test 10 minutes after the injection of compounds where the number of mice staying on a rotating (6 rpm) rod for 1 minute in one of the three trials was determined. […] Table 7. Anticonvulsant Activity of Exemplified Neuroactive Steroids and those of Selected Clinically Useful Anticonvulsants in Mice

Assay [2] concerns N.I.H. Swiss-Webster mice. Put plainly: Elevated plus-maze. The settings on record: for response vs control in vivo at 10 mg/kg: Mus musculus, ip, read-out: % Control. The assay is classed as in vivo. From the text: The theoretical basis for the elevated plus-maze test is similar to that of the light/dark transition test. […] The apparatus consists of two open-arms and two enclosed-arms. The elevated plus-maze test allows for two measures of anxiety, the number of entries into the open-arms and the time spent on the open-arms, both expressed as a percentage of the total number of entries and time spent in/on both the open-arms and enclosed-arms.
Male N.LH. Swiss-Webster mice (Harlan, Indianapolis, IN) weighing 15-20 g were housed four per cage in polyethylene cages with sawdust bedding. The colony mom was environmentally controlled (22°C) with a 12^- hr light/dark cycle (0600-1800 hr). Food and water were available ad libitum, except during testing. The experiments were run from 0700-1500 hr and groups were counterbalance for time of day effects. Mice were only administered drug or vehicle once.
The apparatus included two open arms perpendicular to two enclosed arms elevated 50 cm from the floor. Each arm was 50 cm long and the walls of the enclosed arms were 40 cm tall. The maze was made completely of black plexiglass. Incandescent 200 W light bulbs were above each of the open arms to produce a strong contrast between the open arms and the enclosed arms.
Ten minutes after an injection, the N.I.H. Swiss-Webster mice were placed in the center of the plus-maze facing an open arm. During the 5 min test period, the number of entries onto the open arms and the enclosed arms, and the time spent in the open arms and enclosed arms were measured. All four paws had to be within an arm for the dependent variable to be measured. Therefore, the time spent in the center of the maze is not counted, so the total time spent in the open arms and the enclosed arms may not equal 5 min.

The target of a further assay is GR complex. Nature of the assay: [35S]TBPS binding assay (inhibition of [35S]TBPS binding, cerebral cortex P2 homogenate). The following applies: for IC50: 2 nM [35S]TBPS, rat cerebral cortex P2 homogenate; for IMAX: maximum inhibition of [35S]TBPS binding. The arrangement: species or system rat. Summed up: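 Rat (male Sprague-Dawley) cortical P2 homogenate (0.5 mg protein) in 50 mM Na/K phosphate pH 7.4, 200 mM NaCl, incubated with 2 nM [35S]TBPS plus steroid test compounds (DMSO) in presence of GABA plus (+)bicuculline, 25°C, 90 min. Filtration, scintillation counting; nonspecific binding defined with […].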

For assay [3], the system named is Bovine Uteral Progesterone Receptors. Put plainly: Inhibition of 3H-progesterone binding, uterus cytosol. The settings on record: competitor 10^-6M; 3H-progesterone 0.15 nM. The procedure: The data presented were obtained by performing assays in accordance with the procedures described in et al. 1988 previously to determine the effect of progesterone metabolites and their derivatives and the progestin R5020 on the binding of [^3H]R5020 to the progesterone receptor in rat uterus (Gee et al. 1988).
^3H-progesterone (0.15 nM) was incubated with the rat uterus cytosol in the presence of the test compounds. The specific binding were determined after incubation and compared to the control incubation without the compounds. The data are expressed as percent inhibition of binding.
In Table 3, rats were adrenalectomized 3 days prior to sacrifice. To isolate the mineralocorticoid receptor, brain cytosol fractions were prepared as describe in Gee, et al. 1988. The drugs were incubated with 3 nM of ^3H-aldosterone (the specific ligand for the mineralocorticoid receptor) in the presence of the selective type II agonist RU28362 (0.5 µM) which blocks ^3H-aldosterone binding to the type II (glucocorticoid) receptors. Table 2. Inhibition of 3H-Progesterone Binding to the Bovine Uteral Progesterone Receptors

The mark [4] stands for this setting: Mus musculus, IP, read-out: % Protected.

16 molecules from patent publication EP1038880B1, “Androstanes and pregnanes for allosteric modulation of GABA receptor” (priority 1994, dated 1995) can be followed below.

In the case of `C[C@@]1(O)CC[C@@]2(C)[C@@H](CC[C@@H]3[C@@H]2CC[C@]2(C)[C@@H](C(=O)Cn4cccn4)CC[C@@H]32)C1` [3α-hydroxy-21-(1'-pyrazolyl)-3β-methyl-5α-pregnan-20-one], the responders at 10 mg/kg in assay [1] (setting [4]) is 87.5%. Moreover, in assay [2], the response vs control in vivo at 10 mg/kg is 154%. For the same molecule, at GR complex, the IC50 (usually the point on the concentration scale where inhibition reaches its midpoint) came to 115 nM and the IMAX turned out to be 98%.
As to `Cc1cc(C)n(CC(=O)[C@H]2CC[C@H]3[C@@H]4CC[C@@H]5C[C@H](O)CC[C@]5(C)[C@H]4CC[C@]23C)n1` [3α-hydroxy-21-(1H-3,5-dimethylpyrazolyl)-5β-pregnan-20-one], the responders at 10 mg/kg in assay [1] (setting [4]) was 50%. For the same molecule, the response vs control in vivo at 10 mg/kg in assay [2] was found to be 128%. At GR complex, the IC50 worked out at 96 nM and the IMAX was 77%.
Consider `C[C@]12CC[C@@H](O)C[C@H]1CC[C@@H]1[C@@H]2CC[C@]2(C)[C@@H](C(=O)Cn3nccn3)CC[C@@H]12` [3α-hydroxy-21-(2H-1,2,3-triazol-2-yl)-5β-pregnan-20-one], for which the responders at 10 mg/kg in assay [1] (setting [4]) was 100%. In assay [2], the response vs control in vivo at 10 mg/kg stood at 164%. Also, on GR complex, the IC50 came to 56 nM and the IMAX was 79%.
In the same order, the values of `C[C@]12CC[C@@H](O)C[C@H]1CC[C@@H]1[C@@H]2CC[C@]2(C)[C@@H](C(=O)Cn3cccn3)CC[C@@H]12` [3α-hydroxy-21-(pyrazol-1-yl)-5β-pregnan 20-one] are 62.5%, 129%, 121 nM and 67%.
As for `CC(=O)c1ccc(C#CC2(O)CCC3(C)C(CCC4C3CCC3(C)C(C(=O)CO)CCC43)C2)cc1` (stereo not drawn) [3β-(4'-Acetylphenylethynyl)-3α-21-dihydroxy-5α-pregnan-20-one], the “% Protected” value in assay [1] (IP, 1 mg/kg, 50% hpbcd) is on record as 87.5%. The “% Control” value in assay [2] (IP, 1 mg/kg, 50% hpbcd) came out at 150%. At GR complex, this molecule came in with an IC50 of 4 nM and an IMAX of 92%.
`CC(=O)[C@H]1CC[C@H]2[C@@H]3CC[C@@H]4C[C@@](O)(C#Cc5ccc(C#N)cc5)CC[C@]4(C)[C@H]3CC[C@]12C` [3β-(4'-Cyanophenyl)ethynyl-3α-hydroxy-5β-pregnan-20-one]: the responders at 10 mg/kg in assay [1] (setting [4]) came to 43.7%. Also, the response vs control in vivo at 10 mg/kg in assay [2] came out at 169%. On GR complex, this molecule displayed an IC50 of 73 nM and an IMAX of 92%.
On to `CC(=O)c1ccc(C#C[C@@]2(O)CC[C@@]3(C)[C@H](CC[C@@H]4[C@@H]3CC[C@]3(C)[C@@H](C(=O)CO)CC[C@@H]43)C2)cc1` [3β-(4'-acetylphenylethynyl)-3α,21-dihydroxy-5β-pregnan-20-one], for which, in assay [1] (setting [4]), the responders at 10 mg/kg was determined as 75%. Further, the response vs control in vivo at 10 mg/kg in assay [2] was 115%. Besides, on GR complex, the IC50 was 22 nM and the IMAX turned out to be 99%.
`CC(=O)[C@H]1CC[C@H]2[C@@H]3CC[C@@H]4C[C@@](O)(C#Cc5ccc(-c6ccccc6)cc5)CC[C@]4(C)[C@H]3CC[C@]12C` [3β-(4'-biphenylethynyl)-3α-hydroxy-5β-pregnan-20-one]: in assay [1] (setting [4]), the responders at 10 mg/kg is 0%. In addition, in assay [2], the response vs control in vivo at 10 mg/kg stood at 111%. In addition, at GR complex, the IC50 came to 43 nM and the IMAX came out at 83%.
Take `CC(=O)[C@H]1CC[C@H]2[C@@H]3CC[C@@H]4C[C@@](O)(C#CCCCO)CC[C@]4(C)[C@H]3CC[C@]12C` [3β-(5'-hydroxy-1'-pentynyl)-3α-hydroxy-5β-pregnan-20-one]: the responders at 10 mg/kg in assay [1] (setting [4]) was determined as 12.5%. For the same molecule, in assay [2], the response vs control in vivo at 10 mg/kg was determined as 137%. On GR complex, the IC50 was determined as 58 nM and the IMAX is given as 100%.
As for `CC(=O)c1ccc(C#C[C@@]2(O)CC[C@@]3(C)[C@H](CC[C@@H]4[C@@H]3CC[C@]3(C)[C@@H](C(C)=O)CC[C@@H]43)C2)s1` [3β-(5-Acetylthien-2-yl)ethynyl-3α-hydroxy-5β-pregnan-20-one], the responders at 10 mg/kg in assay [1] (setting [4]) came out at 25%. Also, in assay [2], the response vs control in vivo at 10 mg/kg turned out to be 83%. In addition, at GR complex, the IC50 came to 52 nM and the IMAX is reported as 89%.
For `C#C[C@@]1(O)CC[C@@]2(C)[C@H](CC[C@@H]3[C@@H]2CC[C@]2(C)[C@@H](C(=O)Cn4ccnc4)CC[C@@H]32)C1` [3β-ethynyl-3α-hydroxy-21-(1'-imidazolyl)-5β-pregnan-20-one] the same measures were 50%, 179%, 80 nM and 103%.
In the case of `C#C[C@@]1(O)CC[C@@]2(C)[C@H](CC[C@@H]3[C@@H]2CC[C@]2(C)[C@@H](C(=O)Cn4cccn4)CC[C@@H]32)C1` [3β-ethynyl-3α-hydroxy-21-(1'-pyrazolyl)-5β-pregnan-20-one], the responders at 10 mg/kg in assay [1] (setting [4]) worked out at 62.5%. The response vs control in vivo at 10 mg/kg in assay [2] was determined as 180%. For the same molecule, on GR complex, the IC50 is 106 nM and the IMAX was determined as 99%.
For `CCC(=O)[C@@]1(C)CC[C@H]2[C@@H]3CCC4=CC(=O)CCC4=C3CC[C@@]21C` [Example R5020, promegesterone], in assay [3], the “% of Inhibition” value came out at 100%.
For `C[C@@]1(O)CC[C@@]2(C)[C@@H](CC[C@@H]3[C@@H]2CC[C@]2(C)[C@@H](C(=O)CSS(=O)(=O)[O-])CC[C@@H]32)C1.[Na+]` [sodium S-(3α-hydroxy-3β-methyl-5α-pregnan-20-on-21-yl) thiosulfate], in assay [1] (setting [4]), the responders at 10 mg/kg was 62.5%. Besides, in assay [2], the response vs control in vivo at 10 mg/kg was found to be 125%. On GR complex, this molecule gave an IC50 of 151 nM and an IMAX of 101%.
As for `C[C@]12CC[C@@H](O)C[C@H]1CC[C@@H]1[C@@H]2CC[C@]2(C)[C@@H](C(=O)CSS(=O)(=O)[O-])CC[C@@H]12.[Na+]` [sodium S-(3α-hydroxy-5β-pregnan-20-on-21-yl) thiosulfate], in assay [1] (setting [4]), the responders at 10 mg/kg turned out to be 37.5%. The response vs control in vivo at 10 mg/kg in assay [2] was 143%. At GR complex, this molecule had an IC50 of 268 nM and an IMAX of 88%.
With `C[C@]12CC[C@](O)(C#CCCO)C[C@H]1CC[C@@H]1[C@@H]2CC[C@]2(C)[C@@H](C(=O)CSS(=O)(=O)O)CC[C@@H]12` [sodium S-[3α-hydroxy-3β-(4'-hydroxybutynyl)-5β-pregnan-20-on-21-yl] thiosulfate], the responders at 40 mg/kg in assay [1] (Mus musculus, PO, 40 mg/kg, water, read-out: % Protected) worked out at 33.3%. Also, in assay [2], the response vs control in vivo at 10 mg/kg was found to be 135%. At GR complex, this molecule registered an IC50 of 107 nM and an IMAX of 97%.
